Reference: patent US5444077A, “Ameliorant of cerebral circulation and optical isomer of NB-818, processes for its use” (Banyu Pharmaceutical Co., Ltd., priority 1987, dated 1995)

Columns and labels:
vertebral artery [1] = experiment: Effect of optical isomers to increase the blood flow of the vertebral artery in anesthetized beagle dogs (Pharmacological Test Example 6); format: in vivo, beagle dog; settings: intravenous
Procedure: (§1) Effect to increase the blood flow of the vertebral artery
(§2) A male or female beagle dog having a body weight of about 10 kg was anesthetized by subcutaneous administration of 35 mg/kg of sodium pentobarbital, and the level of anesthesia was maintained by continuous injection of from 4 to 6 mg/kg/hr of sodium pentobarbital.
The test was conducted by maintaining the blood gases under optimum conditions under artificial respiration. A drug was dissolved in a 0.9 wt % saline containing 10% by weight of polyethylene glycol and 10% by weight of ethanol, and a predetermined amount of the solution was intravenously injected to the beagle dog. Then, the blood flow, the blood pressure and the heart rate were measured.
The blood flow was measured by an electromagnetic flow meter by means of blood flow probes attached to the vertebral artery and the femoral artery of the beagle dog. The blood pressure was measured by a pressure transducer connected to a canule inserted to the left femoral artery of the beagle dog. Further, the heart rate was measured by a heart rate counter based on the pulse wave of blood pressure.
The levo-rotatory optical isomer of 2-carbamoyloxymethyl-4-(2,3-dichlorophenyl)-6-methyl-1,4-dihydropyridine-3,5-dicarboxylic acid 3-isopropyl ester 5-methyl ester will be hereinafter referred to simply as (-)-NB-818, and the dextro-rotatory optical isomer thereof will be referred to simply as (+)-NB-818.

vertebral artery [2] = experiment: as above; format: in vivo, beagle dog
vertebral artery [3] = experiment: Effect to increase the blood flow of the vertebral artery in anesthetized beagle dogs (Pharmacological Test Example 1); format: in vivo, beagle dog
Procedure: as §1, §2
The test was conducted by maintaining the blood gases under optimum conditions under artificial respiration. A drug was dissolved in a 0.9 wt % saline containing 10% by weight of polyethylene glycol and 10% by weight of ethanol, and a predetermined amount of the solution was intravenously or intraduodenally injected to the beagle dog. Then, the blood flow, the blood pressure and the heart rate were measured.
The blood flow was measured by an electromagnetic flow meter by means of blood flow probes attached to the vertebral artery and the femoral artery of the beagle dog. The blood pressure was measured by a pressure transducer connected to a canule inserted to the left femoral artery of the beagle dog.

[4] = test system: cerebral regional blood flow; experiment: Effect to increase the cerebral regional blood flow in monkeys (Pharmacological Test Example 3); format: in vivo, Rhesus monkey; settings: 0.01 mg/kg, intravenous
Procedure: Effect to increase the cerebral regional blood flow in monkeys
A male Rhesus monkey having a body weight of from 5.0 to 11.0 kg was anesthetized with ketamine hydrochloride (1 mg/kg by intravenous injection) and sodium pentobarbital (30 mg/kg by intraperitoneal injection), and an endotracheal tube was inserted for artificial respiration. Then, the animal's head was fixed to a stereotaxic apparatus. The cerebral blood flow was calculated from the hydrogen gas clearance curve measured by means of needle type electrodes for hydrogen gas clearance inserted to the cerebral cortex after incising the head and boring a hole in the occipital lobe.
The drug was dissolved in a 0.9 wt % saline containing 10% by weight of polyethylene glycol 300 and 10% by weight of ethanol, and the solution was intravenously administered.

[5] = test system: cerebral isochemia models of Mongolian gerbils; experiment: Effect to prolong the life in the cerebral ischemia models of Mongolian gerbils (Pharmacological Test Example 4); format: in vivo, Mongolian gerbil; settings: 0.01 mg/kg, intraperitoneal; control 100
Procedure: Effect to prolong the life in the cerebral isochemia models of Mongolian gerbils
A male Mongolian gerbil having a body weight of about 70 g was anesthetized by intraperitoneal administration of 70 mg/kg of ketamine hydrochloride. Then, left and right common carotid arteries were exposed and closed by scorbil clips for 20 minutes. Then, the clips were removed to regain the blood flow. Thirty minutes later, a drug dissolved in a 0.9 wt % saline containing 10% by weight of polyethylene glycol 300 and 10% by weight of ethanol, was intraperitoneally administered. The effect to prolong the life was determined by observing mortality and the neurotic symptom during 8 hours or 24 hours from the administration of the drug.

[6] = test system: cerebral regional blood flow; experiment: Effect to increase the cerebral regional blood flow in rabbits (Pharmacological Test Example 2); format: in vivo, rabbit; settings: 0.01 mg/kg, intravenous
Procedure: A male rabbit having a body weight of about 3 kg was immobilized by intravenous injection of gallamine (2-3 mg/kg) and secured to an apparatus for fixing the brain position. Then, platinum electrodes for measuring hydrogen gas clearance were inserted to the top of cerebral cortex, to the center of the cerebellum and to the femoral muscle, and the blood flows were measured. The drug was dissolved in a 0.9 wt % saline containing 10% by weight of polyethylene glycol and 10% by weight of ethanol, and the solution was intravenously injected.

amnesia induced by ECS = experiment: Effect against amnesia induced by ECS, passive avoidance, pretreatment with drug administration (Pharmacological Test Example 5); format: in vivo, rat; settings: 3 mg/kg p.o.
Source text: By using male rats having a body weight of about 200 g, the antiamnesic effect was examined on the basis of one trial passive avoidance reaction as an index. Namely, a rat is put in a light chamber of an operant box comprising the light chamber and a dark chamber, and when the rat entered into the dark chamber, an electric stimulation (5 mA for 10 seconds) was applied from the floor and immediately an electric shock (30 mA, 0.75 second) (hereinafter referred to simply as ECS) was applied to the head of the rat. Two hours or 24 hours after the ECS, the rat was put in the light chamber, and the time until the rat entered from the light chamber to the dark chamber (the latent reaction time) was measured,
The drug was suspended in a 0.5 wt % methyl cellulose and orally administered three times at intervals of 24 hours so that the final administration was conducted one hour prior to ECS.

COC(=O)C1=C(C)NC(COC(N)=O)=C(C(=O)OC(C)C)C1c1cccc(Cl)c1Cl (single isomer, unassigned; (+)) [(+)-NB-818]
Change in femoral artery blood flow (vertebral artery [1]; 0.1 mg/kg): +18.8%
Change in heart rate (vertebral artery [1]; 0.1 mg/kg): +3.8%
Change in blood pressure (vertebral artery [2]; 0.1 mg/kg, intravenous): -8.1%
Change in vertebral artery blood flow (vertebral artery [2]; 0.1 mg/kg, intravenous): +56.8%
Effective period (Half-life period) (vertebral artery [2]; 0.1 mg/kg, intravenous): 15.5 min

COC(=O)C1=C(C)NC(COC(N)=O)=C(C(=O)OC(C)C)C1c1cccc(Cl)c1Cl (single isomer, unassigned; (-)) [(-)-NB-818, levo-rotatory optical isomer of 2-carbamoyloxymethyl-4-(2,3-dichlorophenyl)-6-methyl-1,4-dihydropyridine-3,5-dicarboxylic acid 3-isopropyl ester 5-methyl ester]
Change in femoral artery blood flow (vertebral artery [1]; 0.01 mg/kg): +3.3%
Change in heart rate (vertebral artery [1]; 0.01 mg/kg): +3.4%
Change in vertebral artery blood flow (vertebral artery [1]; 0.01 mg/kg): +123.2%
Effective period (Half-life period) (vertebral artery [1]; 0.01 mg/kg): 44 min
Change in blood pressure (vertebral artery [2]; 0.01 mg/kg, intravenous): -26.6%

COC(=O)C1=C(C)NC(COC(N)=O)=C(C(=O)OC)C1c1cccc(Cl)c1Cl (centres unmarked) [Compound A, 2-Carbamoyloxymethyl-4-(2,3-dichlorophenyl)-6-methyl-1,4-dihydropyridine-3,5-dicarboxylic acid 3,5-dimethyl ester]
Change in blood pressure (vertebral artery [3]; 0.01 mg/kg iv): -13%
Change in femoral artery blood flow (vertebral artery [3]; 0.01 mg/kg iv): +14%
Change in vertebral artery blood flow (vertebral artery [3]; 0.01 mg/kg iv): +76%
Effective period (Half-life period) (vertebral artery [3]; 0.01 mg/kg iv): 9 min

CCOC(=O)C1=C(COC(N)=O)NC(C)=C(C(=O)OC)C1c1cccc(Cl)c1Cl (centres unmarked) [Compound B, 2-Carbamoyloxymethyl-4-(2,3-dichlorophenyl)-6-methyl-1,4-dihydropyridine-3,5-dicarboxylic acid 3-ethyl ester 5-methyl ester]
Change in blood pressure (vertebral artery [3]; 0.01 mg/kg iv): -14%
Change in femoral artery blood flow (vertebral artery [3]; 0.01 mg/kg iv): +16%
Change in vertebral artery blood flow (vertebral artery [3]; 0.01 mg/kg iv): +50%
Effective period (Half-life period) (vertebral artery [3]; 0.01 mg/kg iv): 36 min

CCCOC(=O)C1=C(COC(N)=O)NC(C)=C(C(=O)OC)C1c1cccc(Cl)c1Cl (centres unmarked) [Compound C, 2-Carbamoyloxymethyl-4-(2,3-dichlorophenyl)-6-methyl-1,4-dihydropyridine-3,5-dicarboxylic acid 3-propyl ester 5-methyl ester]
Change in blood pressure (vertebral artery [3]; 0.01 mg/kg iv): -15%
Change in femoral artery blood flow (vertebral artery [3]; 0.01 mg/kg iv): +20%
Change in vertebral artery blood flow (vertebral artery [3]; 0.01 mg/kg iv): +95%
Effective period (Half-life period) (vertebral artery [3]; 0.01 mg/kg iv): 42 min

CCCCOC(=O)C1=C(COC(N)=O)NC(C)=C(C(=O)OC)C1c1cccc(Cl)c1Cl (centres unmarked) [Compound D, 2-Carbamoyloxymethyl-4-(2,3-dichlorophenyl)-6-methyl-1,4-dihydropyridine-3,5-dicarboxylic acid 3-butyl ester 5-methyl ester]
Change in blood pressure (vertebral artery [3]; 0.01 mg/kg iv): -14%
Change in femoral artery blood flow (vertebral artery [3]; 0.01 mg/kg iv): +13%
Change in vertebral artery blood flow (vertebral artery [3]; 0.01 mg/kg iv): +80%
Effective period (Half-life period) (vertebral artery [3]; 0.01 mg/kg iv): 44 min

COC(=O)C1=C(C)NC(C)=C(C(=O)OCCN(C)Cc2ccccc2)C1c1cccc([N+](=O)[O-])c1 (centres unmarked) [Nicardipine, nicardipine]
Change in blood pressure [4]: -24%
Change in cerebral cortex blood flow [4]: +16%
Change in heart rate [4]: +18%
Effective period (Half-life period) [4]: < 30 min
Mortality, 0-8 hours [5]: 83.3%
Mortality, 0-24 hours [5]: 91.7%

COCCOC(=O)C1=C(C)NC(C)=C(C(=O)OC(C)C)C1c1cccc([N+](=O)[O-])c1 (centres unmarked) [Nimodipine, nimodipine]
Change in blood pressure (vertebral artery [3]; 0.3 mg/kg id (intraduodenal)): -29%
Change in femoral artery blood flow (vertebral artery [3]; 0.3 mg/kg id (intraduodenal)): +75%
Change in vertebral artery blood flow (vertebral artery [3]; 0.3 mg/kg id (intraduodenal)): +102%
Effective period (Half-life period) (vertebral artery [3]; 0.3 mg/kg id (intraduodenal)): 150 min
Blood flow change, cerebellum blood flow [6]: +55%
Blood flow change, cerebral blood flow [6]: +68%
Blood flow change, femoral muscle blood flow [6]: -5%
Effective period (Half-life period) [6]: 20.6 min
Mortality, 0-8 hours [5]: 83.3%
Mortality, 0-24 hours [5]: 91.7%
Latent reaction time, acquisition test (amnesia induced by ECS; control 8.6 ± 1.3): 9.6 ± 1.3 s
Latent reaction time, 2 hours later (amnesia induced by ECS; control 49.2 ± 8.1, * P < 0.05 vs control): 103.9 ± 22.2 s
Latent reaction time, 24 hours later (amnesia induced by ECS; control 85.6 ± 22.0, * P < 0.05 vs control): 132.1 ± 25.5 s
Change in blood pressure (vertebral artery [2]; 0.3 mg/kg, intraduodenal): -29%
Change in femoral artery blood flow (vertebral artery [2]; 0.3 mg/kg, intraduodenal): +75%
Change in heart rate (vertebral artery [2]; 0.3 mg/kg, intraduodenal): -23%
Change in vertebral artery blood flow (vertebral artery [2]; 0.3 mg/kg, intraduodenal): +102%
Effective period (Half-life period) (vertebral artery [2]; 0.3 mg/kg, intraduodenal): 150 min
